The structures appear in SMILES notation.

The experiment addresses T1, full length human recombinant glucocorticoid receptor (Homo sapiens, UniProt P04150).
T1 construct: partially purified full length human recombinant glucocorticoid receptor; purchased Panvera/Invitrogen PV4302
T1 sequence (P04150 1-777): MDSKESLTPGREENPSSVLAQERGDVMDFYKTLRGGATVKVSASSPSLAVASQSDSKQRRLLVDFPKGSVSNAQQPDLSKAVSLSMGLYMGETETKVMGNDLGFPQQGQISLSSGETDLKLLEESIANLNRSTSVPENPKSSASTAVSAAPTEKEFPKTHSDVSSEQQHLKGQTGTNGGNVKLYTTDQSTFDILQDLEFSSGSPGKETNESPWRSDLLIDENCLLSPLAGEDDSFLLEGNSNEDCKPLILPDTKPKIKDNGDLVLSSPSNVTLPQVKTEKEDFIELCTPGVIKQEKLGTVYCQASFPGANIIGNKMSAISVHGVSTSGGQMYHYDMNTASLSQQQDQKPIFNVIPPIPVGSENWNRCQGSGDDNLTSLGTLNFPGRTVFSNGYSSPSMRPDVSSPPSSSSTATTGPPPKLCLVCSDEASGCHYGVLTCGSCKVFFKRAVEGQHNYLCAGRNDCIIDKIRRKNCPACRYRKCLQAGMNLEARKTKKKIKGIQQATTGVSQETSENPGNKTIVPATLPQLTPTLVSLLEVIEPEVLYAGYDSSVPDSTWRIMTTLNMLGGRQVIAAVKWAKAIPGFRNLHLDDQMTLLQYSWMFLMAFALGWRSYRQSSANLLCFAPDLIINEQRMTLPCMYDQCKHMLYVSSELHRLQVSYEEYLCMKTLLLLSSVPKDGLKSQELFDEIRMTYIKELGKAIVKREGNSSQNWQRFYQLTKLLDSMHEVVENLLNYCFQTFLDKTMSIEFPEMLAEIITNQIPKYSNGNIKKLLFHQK
Put plainly: Glucocorticoid Receptor Binding Assay (fluorescence polarization competitor assay, Fluormone GS Far Red tracer). An outline of the steps: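 Partially purified full-length recombinant human GR with a stabilizing coactivator peptide was incubated with Fluormone GS Far Red tracer and serially diluted compound for 3 h at 22 °C in the dark, pH 7.4. Fluorescence polarization was read at 610-660 nm. IC50 came from sigmoidal fitting, and Ki from Cheng-Prusoff.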
The term Ki denotes a dissociation constant, usually derived from enzyme kinetics or from competition with a known ligand. `CCn1cc([C@@](O)([C@@H](C)c2ccc(-c3ccc(F)c(C(=O)O)c3)cc2Cl)C(F)(F)F)ccc1=O` (stereo in doubt) [Example 184, 3′-Chloro-4′-[2-(1-ethyl-6-oxo-1,6-dihydro-pyridin-3-yl)-3,3,3-trifluoro-2-hydroxy-1-methyl-propyl]-4-fluoro-biphenyl-3-carboxylic acid]: the Ki worked out at 10.4 nM.
Next, `CCn1cc([C@@](O)([C@@H](C)c2ccc(-c3ccc(C(=O)OC)c(F)c3)cc2Cl)C(F)(F)F)ccc1=O` (stereo in doubt) [Example 185, 3′-Chloro-4′-[2-(1-ethyl-6-oxo-1,6-dihydropyridin-3-yl)-3,3,3-trifluoro-2-hydroxy-1-methyl-propyl]-3-fluoro-biphenyl-4-carboxylic acid methyl ester]: 12.1 nM.
Next, `CCn1cc([C@@](O)([C@@H](C)c2ccc(-c3ccc(C(=O)OC)c(OC)c3)cc2Cl)C(F)(F)F)ccc1=O` (stereo in doubt) [Example 187, 3′-Chloro-4′-[2-(1-ethyl-6-oxo-1,6-dihydro-pyridin-3-yl)-3,3,3-trifluoro-2-hydroxy-1-methyl-propyl]-3-methoxy-biphenyl-4-carboxylic acid methyl ester]: 7.4 nM.
`CCn1cc([C@@](O)([C@@H](C)c2ccc(-c3ccc(C(=O)O)c(OC)c3)cc2Cl)C(F)(F)F)ccc1=O` (stereo in doubt) [Example 188, 3′-Chloro-4′-[2-(1-ethyl-6-oxo-1,6-dihydro-pyridin-3-yl)-3,3,3-trifluoro-2-hydroxy-1-methyl-propyl]-3-methoxy-biphenyl-4-carboxylic acid]: the Ki came out at 98.7 nM.
Next, `C[C@@H](c1cc(Oc2ccc(C(=O)O)c(Cl)c2)ccc1Cl)[C@](O)(c1ccc(=O)n(C)c1)C(F)(F)F` (stereo in doubt) [Example 190, 2-Chloro-4-{4-chloro-3-[3,3,3-trifluoro-2-hydroxy-1-methyl-2-(1-methyl-6-oxo-1,6-dihydro-pyridin-3-yl)-propyl]-phenoxy}-benzoic acid]: 51.4 nM; `CCOC(=O)c1cc(Oc2ccc(Cl)c([C@H](C)[C@](O)(c3ccc(=O)n(C)c3)C(F)(F)F)c2)ccc1F` (stereo in doubt) [Example 193, 5-{4-Chloro-3-[3,3,3-trifluoro-2-hydroxy-1-methyl-2-(1-methyl-6-oxo-1,6-dihydro-pyridin-3-yl)-propyl]-phenoxy}-2-fluoro-benzoic acid ethyl ester]: 10.3 nM.
Next, `C[C@@H](c1cc(Oc2ccc(F)c(C(=O)O)c2)ccc1Cl)[C@](O)(c1ccc(=O)n(C)c1)C(F)(F)F` (stereo in doubt) [Example 194, 5-{4-Chloro-3-[3,3,3-trifluoro-2-hydroxy-1-methyl-2-(1-methyl-6-oxo-1,6-dihydro-pyridin-3-yl)-propyl]-phenoxy}-2-fluoro-benzoic acid]: 32.3 nM; `CCOC(=O)c1cc(Oc2ccc(Cl)c([C@H](C)[C@](O)(c3ccc(=O)n(C)c3)C(F)(F)F)c2)ccc1Cl` (stereo in doubt) [Example 195, 2-Chloro-5-{4-chloro-3-[3,3,3-trifluoro-2-hydroxy-1-methyl-2-(1-methyl-6-oxo-1,6-dihydro-pyridin-3-yl)-propyl]-phenoxy}-benzoic acid ethyl ester]: 17 nM; `C[C@@H](c1cc(Oc2ccc(Cl)c(C(=O)O)c2)ccc1Cl)[C@](O)(c1ccc(=O)n(C)c1)C(F)(F)F` (stereo in doubt) [Example 196, 2-Chloro-5-{4-chloro-3-[3,3,3-trifluoro-2-hydroxy-1-methyl-2-(1-methyl-6-oxo-1,6-dihydro-pyridin-3-yl)-propyl]-phenoxy}-benzoic acid]: 45.8 nM.
Next, `C[C@H](c1ccc(Oc2ccc(C(=O)O)cc2)c(Cl)c1Cl)[C@@](O)(c1ccc(=O)n(C)c1)C(F)(F)F` (stereo in doubt) [Example 198, 4-{2,3-Dichloro-4-[3,3,3-trifluoro-2-hydroxy-1-methyl-2-(1-methyl-6-oxo-1,6-dihydro-pyridin-3-yl)-propyl]-phenoxy}-benzoic acid]: 3.4 nM.

The values are drawn from patent publication US8138189B2, “Substituted benzene compounds as modulators of the glucocorticoid receptor” (Hoffman-La Roche Inc., priority 2009, dated 2012).
